Measurements published in patent publication US20230234920A1, “Azirine Containing Compounds as Anti-Angiogenesis Agents and a Process for the Preparation Thereof” (COUNCIL OF SCIENTIFIC & INDUSTRIAL RESEARCH, priority 2020, published 2023).

Tests used:
[1] = test system: Endothelin-1 receptor; assay: Endothelin-1 induced contraction of isolated artery rings; set-up: species or system mice; details: for % contraction of aortic ring: ET-1 at 100 nM
Excerpt: FIG. 15 represents effect of Compound 1 on endothelin-1 concentration-response curves. (A) Concentration-response curve of endothelin-1 in isolated carotid arteries of vehicle-treated (Control) and Compound 1 treated mice. (B) Concentration-response curve of endothelin-1 in isolated carotid arteries of vehicle-treated (Control) and compound 3 along with compound 8 treated mice.
To test for the selectivity of the putative Endothelin-1 receptor, we applied endothelin-1 or Compound 1 in a concentration dependent manner to the […] to observe its contraction inhibition activity (FIG. 15).

[2] = Intramuscular pharmacokinetic study of bulk compound 1 and chiral isomers; format: in vivo, male Sprague Dawley (SD) rats; details: IM 20 mg/kg
Procedure: In vivo pharmacokinetic study was performed in male Sprague Dawley (SD) rats (n=4). Intramuscular (IM) formulation of bulk of compound 1 as well as chiral isomer-1 and chiral isomer-2 was prepared by dissolving accurately weighed quantity of compound 1 (20 mg) in 1 mL of olive oil followed by vortexing for 2 min and sterilize through syringe filter. Blood samples were collected from the retro orbital plexus of rats under light ether anesthesia into microfuge tubes containing heparin as an anti-coagulant at 0.25, 0.5, 1, 3, 5, 7, 9, 24, 30, 48 and 72 hours post-dosing after intramuscular dose. Plasma sample was harvested by centrifuging the blood at 13000 rpm for 10 min on Sigma 1-15 K (Frankfurt, Germany) and stored frozen at −70±10° C. until bioanalysis. Each plasma sample (100 μl) was processed using protein precipitation method using 200 μl acetonitrile containing medicarpine as internal standard (I.S.) as protein precipitant, and 10 μl of the supernatant was injected for LC-MS/MS.

[3] = male, Sprague-Dawley, rat, plasma, mean ± S.D., n = 4

concentration initiating inhibition of ET-1 mediated contraction [1]: 3 nM
% contraction of aortic ring ([1]; 10 nM): about 35%
% contraction of aortic ring ([1]; 30 nM): ~25%
% contraction of aortic ring ([1]; 50 nM): about 20%
Cl ([2]; mean ± S.D., n = 4): 3.4 ± 0.327 mL/min/kg
Vd ([2]; mean ± S.D., n = 4): 4.017 ± 0.868 L/kg
concentration at 0.25 h ([2]; male, Sprague-Dawley, rat, plasma, intramuscular, 0.25 h): 2910 ± 950 ng/mL
concentration at 0.5 h ([2]; male, Sprague-Dawley, rat, plasma, intramuscular, 0.5 h): 4440 ± 460 ng/mL
concentration at 1 h ([2]; male, Sprague-Dawley, rat, plasma, intramuscular, 1 h): 3930 ± 1200 ng/mL
concentration at 3 h ([2]; male, Sprague-Dawley, rat, plasma, intramuscular, 3 h): 3240 ± 240 ng/mL
concentration at 5 h ([2]; male, Sprague-Dawley, rat, plasma, intramuscular, 5 h): 2830 ± 320 ng/mL
concentration at 7 h ([2]; male, Sprague-Dawley, rat, plasma, intramuscular, 7 h): 2390 ± 530 ng/mL
concentration at 9 h ([2]; male, Sprague-Dawley, rat, plasma, intramuscular, 9 h): 3210 ± 810 ng/mL
concentration at 24 h ([2]; male, Sprague-Dawley, rat, plasma, intramuscular, 24 h): 1740 ± 240 ng/mL
concentration at 30 h ([2]; male, Sprague-Dawley, rat, plasma, intramuscular, 30 h): 1660 ± 230 ng/mL
concentration at 48 h ([2]; male, Sprague-Dawley, rat, plasma, intramuscular, 48 h): 262 ± 120 ng/mL
concentration at 72 h ([2]; male, Sprague-Dawley, rat, plasma, intramuscular, 72 h): 107 ± 10 ng/mL
AUC(0-inf) [2, 3]: 98600 ± 9400 ng·h/mL
half-life [2, 3]: 13.5 ± 1.7 h
AUC(0-t) ([2]; male, Sprague-Dawley, rat, plasma, mean ± S.D., n = 4, read-out: AUC0-72): 96400 ± 9850 ng·h/mL
Cmax ([2]; male, Sprague-Dawley, rat, plasma, mean ± S.D., n = 4, read-out: Cmax): 4620 ± 435 ng/mL
MRT ([2]; male, Sprague-Dawley, rat, plasma, mean ± S.D., n = 4, read-out: MRT): 18 ± 1.57 h
Tmax ([2]; male, Sprague-Dawley, rat, plasma, mean ± S.D., n = 4, read-out: Tmax): 0.667 ± 0.288 h
Structure (SMILES): CCOC(=O)C1N=C1CCc1ccc(OC)cc1 (racemic) [Compound 1, Ethyl 3-(4-methoxyphenethyl)-2H-azirine-2-carboxylate]
